Source: US7247709B2, “Mitogenic oxygenases” (Emory University, priority 1998, dated 2007)
Values belong to the molecule of their own block, whether it stands above or below them.

Assays:
[1] = target: T1, mox1 NADPH-oxidase (Homo sapiens, UniProt Q9Y5S8, I173V); assay: Cell-free assay for mox1 NADPH-oxidase activity (NADPH-dependent chemiluminescence of cell lysates); assay type: biochemical; conditions: MgCl2 1-5 mM
T1 construct: expressed in transfected cells
T1 sequence (Q9Y5S8 1-564 I173V): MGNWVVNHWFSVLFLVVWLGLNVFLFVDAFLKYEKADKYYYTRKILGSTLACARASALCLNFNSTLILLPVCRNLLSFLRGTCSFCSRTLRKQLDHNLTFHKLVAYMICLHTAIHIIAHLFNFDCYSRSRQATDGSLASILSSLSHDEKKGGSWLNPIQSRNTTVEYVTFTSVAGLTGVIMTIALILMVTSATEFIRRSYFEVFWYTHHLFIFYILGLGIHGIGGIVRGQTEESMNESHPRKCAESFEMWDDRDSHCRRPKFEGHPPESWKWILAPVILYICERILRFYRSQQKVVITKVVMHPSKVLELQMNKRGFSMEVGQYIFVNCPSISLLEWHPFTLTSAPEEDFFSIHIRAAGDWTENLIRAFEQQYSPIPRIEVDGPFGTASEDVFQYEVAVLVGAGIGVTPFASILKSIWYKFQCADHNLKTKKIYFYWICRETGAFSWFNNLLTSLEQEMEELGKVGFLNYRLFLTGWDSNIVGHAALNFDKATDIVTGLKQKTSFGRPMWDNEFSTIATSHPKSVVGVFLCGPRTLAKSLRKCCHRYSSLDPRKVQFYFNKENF
T1 sequence (Q61462 1-192 partner): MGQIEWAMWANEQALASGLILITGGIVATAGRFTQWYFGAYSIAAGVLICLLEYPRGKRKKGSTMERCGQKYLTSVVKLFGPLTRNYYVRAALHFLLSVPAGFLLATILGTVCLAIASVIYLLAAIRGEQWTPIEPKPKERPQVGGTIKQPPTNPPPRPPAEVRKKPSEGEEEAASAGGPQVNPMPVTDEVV
Experimental: In an alternate and preferred embodiment of the present invention, cells that had been stably transfected with mox1 (YA28) or with empty vector (NEF2) were grown in 10 cm tissue culture plates in medium containing DMEM, 10% calf serum, 100 units/ml penicillin, 100 μg/ml streptomycin, and 1 μg/ml puromycin to approximately 80% confluency. Cells (five tissue culture plates of each cell type) were washed briefly with 5 ml phosphate buffered saline (PBS) then dissociated from the plates with PBS containing 5 mM EDTA. Cells were pelleted by centrifuging briefly at 1000×g.
To permeabilize the cells, freeze thaw lysis was carried out and this was followed by passage of the cell material through a small bore needle. The supernatant was removed and the cells were frozen on dry ice for 15 minutes. […]
The cell lysates were assayed for protein concentration using the BioRad protein assay system. […] The reaction was initiated by adding 1.5 mM NADPH and 75 μM lucigenin to the assay mix to give a final concentration of 200 μM NADPH and 10 μM lucigenin, and the chemiluminescence was monitored immediately. […] The plate was monitored continuously for 60 minutes and the maximal relative luminescence unit (RLU) value for each sample was used for the graph. […]

[2] = target: T2, human mox1 (Homo sapiens, UniProt Q9Y5S8, I173V); assay: NADPH-dependent superoxide generation, lucigenin luminescence assay in lysates of mox1-transfected NIH 3T3 cells; assay type: biochemical; conditions: lysates of stably mox1-transfected NIH 3T3 cell lines
T2 construct: expressed in transfected cells
T2 sequence (Q9Y5S8 1-564 I173V): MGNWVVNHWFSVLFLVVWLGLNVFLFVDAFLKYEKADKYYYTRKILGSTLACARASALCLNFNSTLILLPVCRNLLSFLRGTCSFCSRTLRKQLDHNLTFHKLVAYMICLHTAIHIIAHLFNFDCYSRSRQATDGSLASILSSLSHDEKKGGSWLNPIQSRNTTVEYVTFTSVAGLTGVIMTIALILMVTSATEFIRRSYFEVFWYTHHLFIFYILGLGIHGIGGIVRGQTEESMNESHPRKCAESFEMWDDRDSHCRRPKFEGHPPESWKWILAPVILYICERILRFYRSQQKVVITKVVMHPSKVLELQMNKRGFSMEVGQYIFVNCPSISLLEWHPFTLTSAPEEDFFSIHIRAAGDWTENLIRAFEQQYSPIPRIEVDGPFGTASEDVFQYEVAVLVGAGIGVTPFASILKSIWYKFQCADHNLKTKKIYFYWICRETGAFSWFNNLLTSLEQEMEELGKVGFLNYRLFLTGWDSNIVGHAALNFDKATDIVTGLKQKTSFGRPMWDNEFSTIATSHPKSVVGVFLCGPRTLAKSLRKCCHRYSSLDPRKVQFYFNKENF
T2 sequence (Q61462 1-192 partner): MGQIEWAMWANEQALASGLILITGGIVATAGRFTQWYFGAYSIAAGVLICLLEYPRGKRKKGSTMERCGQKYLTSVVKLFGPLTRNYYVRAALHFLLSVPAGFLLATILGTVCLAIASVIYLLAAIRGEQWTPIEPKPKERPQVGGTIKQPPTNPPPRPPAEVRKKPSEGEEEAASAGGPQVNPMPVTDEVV
Experimental: In one embodiment of the present invention, NIH 3T3 cells stably transfected with the human mox1 gene (SEQ ID NO:1) were analyzed for superoxide generation using the lucigenin (Bis-N-methylacridinium luminescence assay (Sigma, St. Louis, Mo., Li et al. (1998) J. Biol. Chem. 273, 2015-2023). Cells were washed with cold HANKS' solution and homogenized on ice in HANKS' buffer containing 15% sucrose using a Dounce homogenizer. Cell lysates were frozen immediately in a dry ice/ethanol bath. For the assay, 30 μg of cell lysate was mixed with 200 μM NADPH and 500 μM lucigenin. Luminescence was monitored using a LumiCounter (Packard) at three successive one minute intervals and the highest value was used for comparison. Protein concentration was determined by the Bradford method.
Superoxide generation was monitored in lysates from some of the stably transfected cell lines and was compared with superoxide generation by the untransfected NIH 3T3 cell lysates. Cell lines 26, 27, and 28 gave the highest degree of morphological changes by microscopic examination corresponding to the highest degree of superoxide generation. The luminescent signal was inhibited by superoxide dismutase and the general flavoprotein inhibitor diphenylene iodonium, but was unaffected by added recombinant human p47phox, p67phox and Rac1 (GTP-γS), which are essential cytosolic factors for the phagocyte respiratory-burst oxidase.

[3] = tested on: superoxide-generating NADPH oxidase activity; assay: Superoxide generation in lysates of Ras-transformed fibroblasts, lucigenin luminescence assay; assay type: biochemical; conditions: for RLU/5 μg protein, plus DPI: 1 μM DPI; for inhibition of luminescence / activity: lysates of Table 6; for RLU/5 μg protein, plus SOD: 100 U SOD
Experimental: Lysates from each of these lines were then prepared and tested for their ability to generate superoxide. For each cell line, cells were washed with cold HANKS' balanced salt solution (HBSS), collected by centrifugation, kept on dry-ice for more than 30 min, and disrupted by suspending in low salt buffer (LSB; 50 mM Tris/HCl, pH 7.5, 1 mM PMSF, and protease cocktail from Sigma) and passing through a syringe needle (18 gauge) ten times. Cell lysates were frozen in dry-ice immediately after determining the protein concentration. […] Luminescence of the reaction mixture was monitored for 0.5 second by LumiCounter (Packard) for four times at 3 second intervals. RLU in Table 5 refers to relative luminescence units.

[4] = tested on: r-p65mox mRNA; assay: Expression of r-p65mox mRNA in rat aortic smooth muscle cells (Northern blot); assay type: cell-based
Experimental: Human multiple tissue northern (MTN) Blot I and Human MTN Blot IV (ClonTech) membranes were hybridized with the putative coding region of the PCR-mox vector at 68° C. for several hours. The mox coding region was labeled by random priming with [α-^32P]dCTP (10 μCi) using the Prime-It II kit (Stratagene). For analysis of mox1 expression in cell lines, total RNA was prepared from 10^6 cells using the High Pure RNA Isolation Kit (Boehringer Mannheim) or RNeasy kit (Quiagen). Total RNA (10-20 μg) was separated on a 1% agarose formaldehyde mini-gel and transferred to a Nytran filter (Biorad) and immobilized by ultraviolet cross-linking.
Using the partial cDNA clone from rat, we have examined cultured rat aortic smooth muscle cells for expression of message for r-p65mox. We have observed the mRNA for r-p65mox in these cells. It has been previously reported (Griendling et al. (1994) Circ. Res. 74, 1141-1148; Fukui et al. (1997) Circ. Res. 80, 45-51; Ushio-Fukai et al. (1996) J. Biol. Chem. 271, 23317-23321) that in vitro or in vivo treatment with angiotensin II (AII) is a growth stimulus for vascular smooth muscle cells, and that AII induces increased superoxide generation in these cells. Platelet-derived growth factor (PDGF) and PMA are proliferative signals for vascular smooth muscle cells. We observed that the mRNA for r-p65mox was induced approximately 2-3 fold by angiotensin II (100 nM), corresponding to the increased level of superoxide generation. Thus, the increased superoxide generation in these cells correlates with increased expression of the mRNA for this enzyme. […] 28S RNA was used as a control for RNA recovery.

[5] = tested on: NIH 3T3 cells transfected with the mox1 cDNA (SEQ ID NO:1); assay: Nitro blue tetrazolium reduction by superoxide generated by intact NIH 3T3 cells transfected with mox1 cDNA; assay type: cell-based; conditions: 600 units superoxide dismutase
Experimental: Superoxide generation by intact cells was monitored by using superoxide dismutase-sensitive reduction of nitroblue tetrazolium. NEF2 (vector alone control), YA26 (mox1 (SEQ ID NO:1)-transfected) and YA28 (mox1 (SEQ ID NO:1)-transfected) cells were plated in six well plates at 500,000 cells per well. About 24 hours later, medium was removed from cells and the cells were washed once with 1 mL Hanks solution (Sigma, St. Louis, Mo.). About 1 mL of filtered 0.25% Nitro blue tetrazolium (NBT, Sigma) was added in Hanks without or with 600 units of superoxide dismutase (Sigma) and cells were incubated at 37° C. in the presence of 5% CO2. After 8 minutes the cells were scraped and pelleted at more than 10,000 g. The pellet was re-suspended in 1 mL of pyridine (Sigma) and heated for 10 minutes at 100° C. to solubilize the reduced NBT. The concentration of reduced NBT was determined by measuring the absorbance at 510 nm, using an extinction coefficient of 11,000 M^−1cm^−1. Some wells were untreated and used to determine cell number.

enhancement of NADPH-oxidase activity [1]: about 2 fold
Molecule: [Cl-].[Cl-].[Mg+2] [MgCl2]

Molecule: c1ccc2c(c1)[I+]c1ccccc1-2 [DPI, diphenyleneiodonium]
effect of added agent on the luminescent signal [2]: inhibited
RLU/5 μg protein, plus DPI ([3]; V12-Ras-4 lysate): 36 RLU/5 μg protein
RLU/5 μg protein, plus DPI ([3]; V12-Ras-7 lysate): 39 RLU/5 μg protein
RLU/5 μg protein, plus DPI ([3]; V12-Ras-8 lysate): 35 RLU/5 μg protein
RLU/5 μg protein, plus DPI ([3]; Vector Control lysate): 48 RLU/5 μg protein
inhibition of luminescence / activity [3]: completely inhibited

Molecule: PDGF
induction of rat mox1 message, quantitation by densitometry ([4]; 6 and 12 hour time points): ~4 fold
increase of mRNA for r-p65mox ([4]; PDGF 20 ng/ml): ≥ 2 fold
Northern hybridization of mox1 mRNA from rat aortic smooth muscle cells ([4]; within 12 hours after treatment): increased roughly two-fold

effect of added agent on the luminescent signal [2]: inhibited
RLU/5 μg protein, plus SOD ([3]; V12-Ras-4 lysate): 2128 RLU/5 μg protein
RLU/5 μg protein, plus SOD ([3]; V12-Ras-7 lysate): 578 RLU/5 μg protein
RLU/5 μg protein, plus SOD ([3]; V12-Ras-8 lysate): 2000 RLU/5 μg protein
RLU/5 μg protein, plus SOD ([3]; Vector Control lysate): 154 RLU/5 μg protein
inhibition of luminescence / activity [3]: partially inhibited
Molecule: superoxide dismutase
NBT Reduction, +SOD ([5]; YA26 (mox1) cells): 3.4 ± 0.1 nmols/10^6 cells
NBT Reduction, +SOD ([5]; YA28 (mox1) cells): 3.4 ± 0.3 nmols/10^6 cells
NBT Reduction, +SOD ([5]; vector control cells): 2.1 ± 0.5 nmols/10^6 cells

Molecule: angiotensin II (DRVYIHPF; Angiotensin-2; UniProt P01019 25-32, looked up) [growth stimulus for vascular smooth muscle cells]
induction of rat mox1 message, quantitation by densitometry ([4]; 12 hour time point): approximately 2 fold

effect of added agent on the luminescent signal [2]: unaffected
B1: p67phox: recombinant human p67phox, essential cytosolic factor for the phagocyte respiratory-burst oxidase (protein, UniProt P19878 1-526, looked up)
Neutrophil cytosol factor 2: MSLVEAISLWNEGVLAADKKDWKGALDAFSAVQDPHSRICFNIGCMYTILKNMTEAEKAFTRSINRDKHLAVAYFQRGMLYYQTEKYDLAIKDLKEALIQLRGNQLIDYKILGLQFKLFACEVLYNIAFMYAKKEEWKKAEEQLALATSMKSEPRHSKIDKAMECVWKQKLYEPVVIPVGKLFRPNERQVAQLAKKDYLGKATVVASVVDQDSFSGFAPLQPQAAEPPPRPKTPEIFRALEGEAHRVLFGFVPETKEELQVMPGNIVFVLKKGNDNWATVMFNGQKGLVPCNYLEPVELRIHPQQQPQEESSPQSDIPAPPSSKAPGRPQLSPGQKQKEEPKEVKLSVPMPYTLKVHYKYTVVMKTQPGLPYSQVRDMVSKKLELRLEHTKLSYRPRDSNELVPLSEDSMKDAWGQVKNYCLTLWCENTVGDQGFPDEPKESEKADANNQTTEPQLKKGSQVEALFSYEATQPEDLEFQEGDIILVLSKVNEEWLEGECKGKVGIFPKVFVEDCATTDLESTRREV

effect of added agent on the luminescent signal [2]: unaffected
B2: p47phox: recombinant human p47phox, essential cytosolic factor for the phagocyte respiratory-burst oxidase (protein, UniProt P14598 1-390, looked up)
Neutrophil cytosol factor 1: MGDTFIRHIALLGFEKRFVPSQHYVYMFLVKWQDLSEKVVYRRFTEIYEFHKTLKEMFPIEAGAINPENRIIPHLPAPKWFDGQRAAENRQGTLTEYCSTLMSLPTKISRCPHLLDFFKVRPDDLKLPTDNQTKKPETYLMPKDGKSTATDITGPIILQTYRAIANYEKTSGSEMALSTGDVVEVVEKSESGWWFCQMKAKRGWIPASFLEPLDSPDETEDPEPNYAGEPYVAIKAYTAVEGDEVSLLEGEAVEVIHKLLDGWWVIRKDDVTGYFPSMYLQKSGQDVSQAQRQIKRGAPPRRSSIRNAHSIHQRSRKRLSQDAYRRNSVRFLQQRRRQARPGPQSPGSPLEEERQTQRSKPQPAVPPRPSADLILNRCSESTKRKLASAV
